Source: patent US9265764B2, “Uses of chemicals to modulate GSK-3 signaling for treatment of bipolar disorder and other brain disorders” (Massachusetts Institute of Technology, priority 2009, dated 2016)
Values belong to the compound of their own block, whether it stands above or below them.

Legend:
[1] = test system: amphetamine-induced hyperactivity in C57BL/6J mice; test: Amphetamine-induced hyperactivity (AIH) in C57BL/6J mice; format: in vivo
[2] = test system: βCat-eGFP reporter in human U2OS cells; test: Cellular β-catenin stability assay (βCat-eGFP reporter); format: cell-based; conditions: for β-catenin accumulation: βCat-eGFP reporter assay
Protocol: Cellular-β-Catenin Stability Assay: To study effects of small molecules on GSK-3/β-catenin signaling in cells, we optimized an image-based assay that measures β-catenin stability. This assay uses human U2OS cells engineered to express a genetically encoded fluorescent reporter consisting of a fusion of β-catenin to enhanced green fluorescent protein (eGFP) that were obtained from Thermo Fisher Scientific (Denmark). […] Lithium treatments at 10 mM and valproic acid at 10 mM also have the same effect in this assay. […] Cells were imaged on an ImageXpress Micro (Molecular Devices) automated microscope at 10× magnification with detection of both DNA and eGFP fluorescence. The percentage of eGFP positive cells was calculated and compared to an untreated control.

[3] = test system: panel of 358 kinases; test: KINOMEscan active-site dependent competition binding assay; conditions: 10 μM
[4] = test system: amphetamine-induced hyperactivity in DBA/2J mice; test: Lithium-nonresponsive AIH in DBA/2J mice; format: in vivo; conditions: for effect on AIH: DBA/2J
[5] = Serum level after systemic administration
[6] = test system: TCF/LEF reporter in HEK293 cells; test: TCF/LEF reporter assay with lithium; format: cell-based; conditions: FIG. 12
[7] = target: T1, human GSK-3β (Homo sapiens, UniProt P49841); test: in vitro GSK-3β kinase assay (Kinase-Glo luminescence); format: biochemical; conditions: FIG. 9 dose response, n=4
T1 construct: Recombinant full-length human GSK-3β (NM_002093) with an N-terminal GST tag; GST (N); purchased BPS Biosciences 40007; host or cells: Sf9 insect cells (baculovirus)

[8] = test system: dopamine transporter (DAT) knockout mice; conditions: 10 mg/kg; i.p.; cited from earlier work
[9] = ICV 1 μl of 0.1, 1.4, 14 μg/μl, FIGS. 16-18
[10] = intra-striatal infusion, 1 μl of 1.4 μg/μl, FIG. 22

T1 sequence (P49841 1-433 isoform P49841-2): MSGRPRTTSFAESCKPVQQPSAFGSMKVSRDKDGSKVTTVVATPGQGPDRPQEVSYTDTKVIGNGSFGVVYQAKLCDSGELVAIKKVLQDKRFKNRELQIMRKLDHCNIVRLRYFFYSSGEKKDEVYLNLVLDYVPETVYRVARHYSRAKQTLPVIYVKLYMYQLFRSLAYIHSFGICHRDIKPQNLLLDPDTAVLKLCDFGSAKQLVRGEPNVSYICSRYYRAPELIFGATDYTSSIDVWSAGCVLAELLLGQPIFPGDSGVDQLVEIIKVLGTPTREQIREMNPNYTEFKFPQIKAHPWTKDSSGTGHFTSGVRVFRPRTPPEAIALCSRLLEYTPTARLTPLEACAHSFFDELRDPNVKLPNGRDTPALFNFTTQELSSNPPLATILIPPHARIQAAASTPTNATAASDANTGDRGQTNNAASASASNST

Number of Binding Targets (kinases) [3]: 95
SMILES: CN(C)C[C@@H]1CCn2cc(c3ccccc32)C2=C(C(=O)NC2=O)c2cn(c3ccccc23)CCO1 [ruboxistaurin]
effect on AIH [1, 9]: moderate attenuating effect
β-catenin accumulation [2]: able to cause β-catenin accumulation

maximum serum level ([5]; 3.125 mg/kg systemic, extrapolated): 3 to 4 µM
maximum serum level ([5]; 3.125 mg/kg systemic, extrapolated, listed as compound of formula 7): about 4 μM
maximum serum level ([5]; 12.5 mg/kg systemic): about 15 μM
maximum serum level ([5]; 50 mg/kg systemic): about 69 μM
Number of Binding Targets (kinases) [3]: 10
SMILES: Cc1c[nH]c(-c2cnc(NCCNc3ccc(C#N)cn3)nc2-c2ccc(Cl)cc2Cl)n1 [CHIR-99021]
effect on AIH ([1]; 6.25 mg/kg single dose i.p., FIG. 24): non-effective dose
effect on AIH ([1]; 12.5 mg/kg single dose i.p., FIG. 24): significantly decreased amphetamine-induced hyperactivity
effect on AIH ([1]; 25 mg/kg single dose i.p., FIG. 24): significantly decreased amphetamine-induced hyperactivity
effect on AIH [1, 9]: effective in attenuating AIH to levels comparable to those observed after lithium administration
effect on AIH [1, 10]: almost complete ablation of the amphetamine-induced hyperactivity
lowest dose that attenuated AIH ([1]; systemic (i.p.), C57BL/6J mice): 12.5 mg/kg
effect on AIH ([4]; 50 mg/kg i.p., FIG. 26): significant attenuation of AIH
effect on AIH ([4]; ICV 0.14 μg (1 μl infusion), FIG. 28): significantly attenuated AIH
effect on AIH ([4]; ICV 1.4 μg (1 μl infusion), FIG. 28): significantly attenuated AIH
lowest dose that attenuated AIH ([4]; systemic (i.p.), DBA/2J mice, FIG. 27): 0.78 mg/kg
TCF/LEF reporter signal: effect of addition of lithium ([6]; high concentration of Chir99021): synergistic effect
TCF/LEF reporter signal: effect of addition of lithium ([6]; lower concentrations of Chir99021): only an additive effect

SMILES: COc1ccc(CNC(=O)Nc2ncc([N+](=O)[O-])s2)cc1 [AR-A014418]
effect on AIH ([1]; 9 mg/kg i.p., FIG. 19): None of these GSK-3 inhibitors showed a significant effect on hyperactivity
eGFP fluorescence and accumulation of βCat-eGFP reporter ([2]; 20 μM over 20 hrs): dose dependent increase in eGFP fluorescence

IC50 [7]: ~6.9 nM
SMILES: CN(C)CCCn1cc(C2=C(c3c[nH]c4ccccc34)C(=O)NC2=O)c2ccccc21 [BIM-I, bisindoylmaleimide I]

SMILES: Cn1cc(C2=C(c3ccc(Cl)cc3Cl)C(=O)NC2=O)c2ccccc21 [SB-216763]
effect on AIH ([1]; 5, 10, 20 mg/kg i.p.): None of these GSK-3 inhibitors showed a significant effect on hyperactivity
effect on AIH ([1]; ICV in DMSO vehicle): None of these GSK-3 inhibitors showed a significant effect on hyperactivity
hyperactivity in DAT knockout mice [8]: attenuates hyperactivity
Number of Binding Targets (kinases) [3]: 31

Number of Binding Targets (kinases) [3]: 75
SMILES: Cn1cc(C2=C(c3cn(C4CCN(Cc5ccccn5)CC4)c4ccccc34)C(=O)NC2=O)c2ccccc21 [enzastaurin]
effect on AIH [1, 9]: no effect in AIH
effect on AIH [1, 10]: modestly effective
β-catenin accumulation [2]: able to cause β-catenin accumulation

SMILES: CCCC(CCC)C(=O)O [valproic acid]
eGFP fluorescence and accumulation of βCat-eGFP reporter ([2]; 10 mM): same effect
